Test results published in patent US10675284B2, “Treatment of B-cell malignancies by a combination JAK and PI3K inhibitors” (Incyte Corporation, priority 2014, dated 2020).
Read-outs that look alike come from different tables or passages of the source.

Legend:
[1] = molecular target: human JAK1 (a.a. 837-1142) (Homo sapiens, UniProt P23458); assay: In vitro JAK kinase assay (HTRF), JAK1; assay type: biochemical
[2] = molecular target: human JAK2 (a.a. 828-1132) (Homo sapiens (Human), UniProt O60674); assay: In vitro JAK kinase assay (HTRF), JAK2; assay type: biochemical; settings: IC50 ratio, 1 mM ATP
Sequence of human JAK2 (a.a. 828-1132) (O60674 828-1132): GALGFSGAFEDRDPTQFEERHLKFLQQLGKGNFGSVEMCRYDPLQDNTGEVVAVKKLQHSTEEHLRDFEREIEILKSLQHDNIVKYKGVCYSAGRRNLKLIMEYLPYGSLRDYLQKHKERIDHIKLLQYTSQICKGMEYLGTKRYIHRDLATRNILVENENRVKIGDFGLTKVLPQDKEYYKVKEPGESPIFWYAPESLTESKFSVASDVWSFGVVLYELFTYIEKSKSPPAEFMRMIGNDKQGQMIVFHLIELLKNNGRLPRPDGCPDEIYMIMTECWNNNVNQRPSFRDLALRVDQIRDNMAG

Pfeiffer cells = assay: Western blot analysis of Pfeiffer cells; assay type: cell-based, human; settings: 24 hours
Procedure: The following materials and methods were used in the Western blot analysis infra. Cells (5 million) were lysed in a 300 μl volume of lysis buffer. Soluble fractions were collected by centrifugation. 25 μl of cell lysate were loaded into Tris-Glycine polyacrylamide gels and subjected to electrophoresis. The proteins were transferred into nitrocellulose membrane and probed with antibodies from Cell Signaling Technology for the following proteins: phospho-Stat3 Y705, phospho-Akt 5473, pim1, pim2, pim3, c-myc, phospho-p70S6K, phosho-S6, phospho-Bad S112 and actin.
IL6 and IL10 promote cell survival through the expression of Pim2, which is dependent on JAK1 activity.
Extracts were analyzed by Western blot for pAKT and pSTAT3.

Sequence of human JAK1 (a.a. 837-1142) (P23458 whole entry, looked up): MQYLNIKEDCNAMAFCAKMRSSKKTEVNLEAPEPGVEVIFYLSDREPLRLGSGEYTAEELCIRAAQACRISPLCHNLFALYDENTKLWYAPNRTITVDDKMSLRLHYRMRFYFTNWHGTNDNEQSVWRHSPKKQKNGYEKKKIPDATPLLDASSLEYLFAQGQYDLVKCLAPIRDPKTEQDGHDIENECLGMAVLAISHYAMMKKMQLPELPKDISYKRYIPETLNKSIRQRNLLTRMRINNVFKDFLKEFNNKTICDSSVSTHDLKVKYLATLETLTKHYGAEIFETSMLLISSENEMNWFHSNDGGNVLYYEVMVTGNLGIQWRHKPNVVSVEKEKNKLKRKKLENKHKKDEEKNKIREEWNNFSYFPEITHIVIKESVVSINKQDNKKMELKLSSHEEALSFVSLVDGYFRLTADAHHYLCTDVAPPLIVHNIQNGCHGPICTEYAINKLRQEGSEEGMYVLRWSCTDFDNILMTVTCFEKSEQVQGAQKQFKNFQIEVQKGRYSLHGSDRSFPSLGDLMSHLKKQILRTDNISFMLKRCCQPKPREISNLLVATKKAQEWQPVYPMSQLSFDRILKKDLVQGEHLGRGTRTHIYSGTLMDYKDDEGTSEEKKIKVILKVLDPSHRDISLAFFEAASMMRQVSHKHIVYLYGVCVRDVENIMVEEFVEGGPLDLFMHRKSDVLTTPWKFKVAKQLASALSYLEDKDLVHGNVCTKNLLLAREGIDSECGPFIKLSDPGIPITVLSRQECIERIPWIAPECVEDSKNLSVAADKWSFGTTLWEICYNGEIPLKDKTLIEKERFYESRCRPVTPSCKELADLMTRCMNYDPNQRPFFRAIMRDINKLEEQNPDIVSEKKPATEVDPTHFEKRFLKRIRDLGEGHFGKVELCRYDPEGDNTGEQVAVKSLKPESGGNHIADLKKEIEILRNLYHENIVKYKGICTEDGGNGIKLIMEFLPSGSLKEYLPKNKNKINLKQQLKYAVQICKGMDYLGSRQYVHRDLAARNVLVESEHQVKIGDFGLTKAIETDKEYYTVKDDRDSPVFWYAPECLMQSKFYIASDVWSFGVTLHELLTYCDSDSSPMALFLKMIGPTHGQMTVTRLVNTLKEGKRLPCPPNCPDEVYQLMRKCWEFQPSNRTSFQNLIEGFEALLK

JAK2/JAK1 [2] | IC50 ([1]; 1 mM ATP, read-out: JAK1 IC50) [nM] | SMILES | IC50 [1] [nM] | IL10-induced expression of Pim2 (Pfeiffer cells)
>10 | < 100 | C[C@@H](O)c1nc2cnc3ccsc3c2n1[C@H]1CC[C@H](CC#N)OC1 [Compound 1, ((2R,5S)-5-{2-[(1R)-1-hydroxyethyl]-1H-imidazo[4,5-d]thieno[3,2-b]pyridin-1-yl}tetrahydro-2H-pyran-2-yl)acetonitrile] | – | –
>10 | < 10 | N#CCC(C1CCN(c2nc3cccnc3o2)C1)n1cc(-c2ncnc3[nH]ccc23)cn1 (stereo not shown) [Compound 4, 3-(1-[1,3]oxazolo[5,4-b]pyridin-2-ylpyrrolidin-3-yl)-3-[4-(7H-pyrrolo[2,3-d]pyrimidin-4-yl)-1H-pyrazol-1-yl]propanenitrile] | – | –
>10 | < 10 | N#CCC1(n2cc(-c3ncnc4[nH]ccc34)cn2)CN(C2CCN(C(=O)c3ccnc(C(F)(F)F)n3)CC2)C1 [Compound 9, [3-[4-(7H-pyrrolo[2,3-d]pyrimidin-4-yl)-1H-pyrazol-1-yl]-1-(1-{[2-(trifluoromethyl)pyrimidin-4-yl]carbonyl}piperidin-4-yl)azetidin-3-yl]acetonitrile] | – | –
– | < 10 | N#CC[C@]1(n2cc(-c3ncnc4[nH]ccc34)cn2)C[C@H](N2CCC(Oc3cc(CN4CC(O)C4)cc(C(F)(F)F)n3)CC2)C1 [Compound 11, {trans-3-(4-{[4-[(3-hydroxyazetidin-1-yl)methyl]-6-(trifluoromethyl)pyridin-2-yl]oxy}piperidin-1-yl)-1-[4-(7H-pyrrolo[2,3-d]pyrimidin-4-yl)-1H-pyrazol-1-yl]cyclobutyl}acetonitrile] | – | –
>10 | < 10 | N#CC[C@]1(n2cc(-c3ncnc4[nH]ccc34)cn2)C[C@H](N2CCC(Oc3cc(CN4CCC[C@@H]4CO)cc(C(F)(F)F)n3)CC2)C1 [Compound 13, {trans-3-(4-{[4-{[(2R)-2-(hydroxymethyl)pyrrolidin-1-yl]methyl}-6-(trifluoromethyl)pyridin-2-yl]oxy}piperidin-1-yl)-1-[4-(7H-pyrrolo[2,3-d]pyrimidin-4-yl)-1H-pyrazol-1-yl]cyclobutyl}acetonitrile] | – | –
>10 | < 10 | C[C@@H](CO)NCc1cc(OC2CCN([C@H]3C[C@](CC#N)(n4cc(-c5ncnc6[nH]ccc56)cn4)C3)CC2)nc(C(F)(F)F)c1 [Compound 23, {trans-3-(4-{[4-({[(1S)-2-hydroxy-1-methylethyl]amino}methyl)-6-(trifluoromethyl)pyridin-2-yl]oxy}piperidin-1-yl)-1-[4-(7H-pyrrolo[2,3-d]pyrimidin-4-yl)-1H-pyrazol-1-yl]cyclobutyl}acetonitrile] | – | –
>10 | < 10 | C[C@@H](O)CNCc1cc(OC2CCN([C@H]3C[C@](CC#N)(n4cc(-c5ncnc6[nH]ccc56)cn4)C3)CC2)nc(C(F)(F)F)c1 [Compound 24, {trans-3-(4-{[4-({[(2R)-2-hydroxypropyl]amino}methyl)-6-(trifluoromethyl)pyridin-2-yl]oxy}piperidin-1-yl)-1-[4-(7H-pyrrolo[2,3-d]pyrimidin-4-yl)-1H-pyrazol-1-yl]cyclobutyl}acetonitrile] | – | –
>10 | < 10 | C[C@H](O)CNCc1cc(OC2CCN([C@H]3C[C@](CC#N)(n4cc(-c5ncnc6[nH]ccc56)cn4)C3)CC2)nc(C(F)(F)F)c1 [Compound 25, {trans-3-(4-{[4-({[(2S)-2-hydroxypropyl]amino}methyl)-6-(trifluoromethyl)pyridin-2-yl]oxy}piperidin-1-yl)-1-[4-(7H-pyrrolo[2,3-d]pyrimidin-4-yl)-1H-pyrazol-1-yl]cyclobutyl}acetonitrile] | – | –

Second part, the compound before the results:

SMILES | JAK2/JAK1 [2] | IC50 ([1]; 1 mM ATP, read-out: JAK1 IC50) [nM] | IC50 [1] [nM] | IL10-induced expression of Pim2 (Pfeiffer cells)
N#CCC(C1CCN(c2cccc(Cl)n2)C1)n1cc(-c2ncnc3[nH]ccc23)cn1 (single isomer, unassigned) [Compound 3, 3-[1-(6-chloropyridin-2-yl)pyrrolidin-3-yl]-3-[4-(7H-pyrrolo[2,3-d]pyrimidin-4-yl)-1H-pyrazol-1-yl]propanenitrile] | >10 | – | < 10 | –
N#CCC(CN1CCN(C(=O)c2ccc(C#N)cc2F)CC1)n1cc(-c2ncnc3[nH]ccc23)cn1 (stereo not shown) [Compound 5, 4-[(4-{3-cyano-2-[4-(7H-pyrrolo[2,3-d]pyrimidin-4-yl)-1H-pyrazol-1-yl]propyl}piperazin-1-yl)carbonyl]-3-fluorobenzonitrile] | >10 | < 10 | – | –
N#CCC(CN1CCN(C(=O)c2ccc(C#N)cc2F)CC1)n1ccc(-c2ncnc3[nH]ccc23)c1 (stereo not shown) [Compound 6, 4-[(4-{3-cyano-2-[3-(7H-pyrrolo[2,3-d]pyrimidin-4-yl)-1H-pyrrol-1-yl]propyl}piperazin-1-yl)carbonyl]-3-fluorobenzonitrile] | >10 | < 10 | – | –
N#CCC1(n2cc(-c3ncnc4[nH]ccc34)cn2)CN(C2CCN(C(=O)c3ccnc(C(F)(F)F)c3F)CC2)C1 [Compound 7, {1-{1-[3-Fluoro-2-(trifluoromethyl)isonicotinoyl]piperidin-4-yl}-3-[4-(7H-pyrrolo[2,3-d]pyrimidin-4-yl)-1H-pyrazol-1-yl]azetidin-3-yl}acetonitrile] | >10 | < 10 | – | blocked
N#CCC1(n2cc(-c3ncnc4[nH]ccc34)cn2)CN(C2CCN(C(=O)Nc3ccc(F)cc3C(F)(F)F)CC2)C1 [Compound 8, 4-{3-(cyanomethyl)-3-[4-(7H-pyrrolo[2,3-d]pyrimidin-4-yl)-1H-pyrazol-1-yl]azetidin-1-yl}-N-[4-fluoro-2-(trifluoromethyl)phenyl]piperidine-1-carboxamide] | >10 | < 10 | – | –
N#CC[C@]1(n2cc(-c3ncnc4[nH]ccc34)cn2)C[C@H](N2CCN(C(=O)c3ccnc(C(F)(F)F)n3)CC2)C1 [Compound 10, [trans-1-[4-(7H-pyrrolo[2,3-d]pyrimidin-4-yl)-1H-pyrazol-1-yl]-3-(4-{[2-(trifluoromethyl)pyrimidin-4-yl]carbonyl}piperazin-1-yl)cyclobutyl]acetonitrile] | >10 | < 10 | – | –
N#CC[C@]1(n2cc(-c3ncnc4[nH]ccc34)cn2)C[C@H](N2CCC(Oc3cc(CN4CCC[C@H]4CO)cc(C(F)(F)F)n3)CC2)C1 [Compound 12, {trans-3-(4-{[4-{[(2S)-2-(hydroxymethyl)pyrrolidin-1-yl]methyl}-6-(trifluoromethyl)pyridin-2-yl]oxy}piperidin-1-yl)-1-[4-(7H-pyrrolo[2,3-d]pyrimidin-4-yl)-1H-pyrazol-1-yl]cyclobutyl}acetonitrile] | >10 | < 10 | – | –
N#CCC1(n2cc(-c3ncnc4[nH]ccc34)cn2)CN([C@H]2CC[C@@H](Oc3cc(CCO)nc(C(F)(F)F)n3)CC2)C1 [Compound 18, {1-(cis-4-{[6-(2-hydroxyethyl)-2-(trifluoromethyl)pyrimidin-4-yl]oxy}cyclohexyl)-3-[4-(7H-pyrrolo[2,3-d]pyrimidin-4-yl)-1H-pyrazol-1-yl]azetidin-3-yl}acetonitrile] | >10 | < 10 | – | –
CCNCc1cc(O[C@H]2CC[C@@H](N3CC(CC#N)(n4cc(-c5ncnc6[nH]ccc56)cn4)C3)CC2)nc(C(F)(F)F)c1 [Compound 19, {1-(cis-4-{[4-[(ethylamino)methyl]-6-(trifluoromethyl)pyridin-2-yl]oxy}cyclohexyl)-3-[4-(7H-pyrrolo[2,3-d]pyrimidin-4-yl)-1H-pyrazol-1-yl]azetidin-3-yl}acetonitrile] | >10 | < 10 | – | –
CC(C)(O)c1cc(O[C@H]2CC[C@@H](N3CC(CC#N)(n4cc(-c5ncnc6[nH]ccc56)cn4)C3)CC2)nc(C(F)(F)F)c1 [Compound 20, {1-(cis-4-{[4-(1-hydroxy-1-methylethyl)-6-(trifluoromethyl)pyridin-2-yl]oxy}cyclohexyl)-3-[4-(7H-pyrrolo[2,3-d]pyrimidin-4-yl)-1H-pyrazol-1-yl]azetidin-3-yl}acetonitrile] | >10 | < 10 | – | –
N#CCC1(n2cc(-c3ncnc4[nH]ccc34)cn2)CN([C@H]2CC[C@@H](Oc3cc(CN4CC[C@@H](O)C4)cc(C(F)(F)F)n3)CC2)C1 [Compound 21, {1-(cis-4-{[4-{[(3R)-3-hydroxypyrrolidin-1-yl]methyl}-6-(trifluoromethyl)pyridin-2-yl]oxy}cyclohexyl)-3-[4-(7H-pyrrolo[2,3-d]pyrimidin-4-yl)-1H-pyrazol-1-yl]azetidin-3-yl}acetonitrile] | >10 | < 10 | – | –
N#CCC1(n2cc(-c3ncnc4[nH]ccc34)cn2)CN([C@H]2CC[C@@H](Oc3cc(CN4CC[C@H](O)C4)cc(C(F)(F)F)n3)CC2)C1 [Compound 22, {1-(cis-4-{[4-{[(3S)-3-hydroxypyrrolidin-1-yl]methyl}-6-(trifluoromethyl)pyridin-2-yl]oxy}cyclohexyl)-3-[4-(7H-pyrrolo[2,3-d]pyrimidin-4-yl)-1H-pyrazol-1-yl]azetidin-3-yl}acetonitrile] | >10 | < 10 | – | –
N#CC[C@]1(n2cc(-c3ncnc4[nH]ccc34)cn2)C[C@H](N2CCC(Oc3cc(CCO)cc(C(F)(F)F)n3)CC2)C1 [Compound 26, {trans-3-(4-{[4-(2-hydroxyethyl)-6-(trifluoromethyl)pyridin-2-yl]oxy}piperidin-1-yl)-1-[4-(7H-pyrrolo[2,3-d]pyrimidin-4-yl)-1H-pyrazol-1-yl]cyclobutyl}acetonitrile] | >10 | < 10 | – | –
N#CC[C@H](C1CCCC1)n1cc(-c2ncnc3[nH]ccc23)cn1 [ruxolitinib, (3R)-3-cyclopentyl-3-[4-(7H-pyrrolo[2,3-d]pyrimidin-4-yl)-1H-pyrazol-1-yl]propanenitrile, reference compound] | – | – | – | blocked
